According to article PMC4676015, “Variant fatty acid-like molecules Conjugation, novel approaches for extending the stability of therapeutic peptides” (Scientific Reports, 2015):

Legend:
DPP IV enzyme = target: T1, DPP IV enzyme (Homo sapiens, UniProt P27487); assay: Stability against DPP IV proteolysis with or without HSA; type: in vitro ADME; conditions: DPP IV 0.1 mg/ml, peptide 1 mg/ml, 37 °C, GLP-1 (7–37) ELISA; for degradation in DPP IV proteolysis compared with wild-type GLP-1, within 24 h: 25 mM potassium phosphate, 25 mM KCl, 5 mM MgCl2, pH 7.0, 2% HSA; for detectability of full-length peptide at 24 h: pH 7.0, in the presence of human serum albumin (2%)
T1 construct: purchased Sigma-Aldrich
T1 sequence (P27487 whole entry, species assumed): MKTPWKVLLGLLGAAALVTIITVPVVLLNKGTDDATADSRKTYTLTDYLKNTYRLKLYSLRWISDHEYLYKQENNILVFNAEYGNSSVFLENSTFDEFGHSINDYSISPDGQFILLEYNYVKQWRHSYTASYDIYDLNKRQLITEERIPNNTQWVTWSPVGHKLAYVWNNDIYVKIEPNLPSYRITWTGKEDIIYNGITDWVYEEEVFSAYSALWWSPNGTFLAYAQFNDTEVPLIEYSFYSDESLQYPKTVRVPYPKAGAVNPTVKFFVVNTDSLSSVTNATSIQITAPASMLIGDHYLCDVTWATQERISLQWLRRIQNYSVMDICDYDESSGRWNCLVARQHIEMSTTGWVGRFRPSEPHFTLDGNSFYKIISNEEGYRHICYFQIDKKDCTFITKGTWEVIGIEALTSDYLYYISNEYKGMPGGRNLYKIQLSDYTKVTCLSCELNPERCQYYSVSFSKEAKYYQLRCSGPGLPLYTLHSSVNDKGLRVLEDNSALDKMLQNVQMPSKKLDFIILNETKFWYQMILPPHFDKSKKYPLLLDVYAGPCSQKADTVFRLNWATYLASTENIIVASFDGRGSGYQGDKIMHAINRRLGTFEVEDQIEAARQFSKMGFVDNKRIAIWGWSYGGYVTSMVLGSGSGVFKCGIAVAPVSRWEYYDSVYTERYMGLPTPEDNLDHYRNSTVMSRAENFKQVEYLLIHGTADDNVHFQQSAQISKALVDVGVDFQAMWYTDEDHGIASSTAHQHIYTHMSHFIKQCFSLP
Method: DPP IV enzyme (0.1 mg/ml) was dissolved in 25 mM potassium phosphate buffer containing 25 mM potassium chloride and 5 mM magnesium chloride, pH 7.0.

GLP-1 receptor (GLP-1R) = target: T2, GLP-1 receptor (GLP-1R) (Rattus norvegicus, UniProt P32301); assay: GLP-1 receptor binding assay (cellular ELISA)
T2 construct: endogenous in cells; host or cells: rat INS-1 cells
T2 sequence (P32301 22-463): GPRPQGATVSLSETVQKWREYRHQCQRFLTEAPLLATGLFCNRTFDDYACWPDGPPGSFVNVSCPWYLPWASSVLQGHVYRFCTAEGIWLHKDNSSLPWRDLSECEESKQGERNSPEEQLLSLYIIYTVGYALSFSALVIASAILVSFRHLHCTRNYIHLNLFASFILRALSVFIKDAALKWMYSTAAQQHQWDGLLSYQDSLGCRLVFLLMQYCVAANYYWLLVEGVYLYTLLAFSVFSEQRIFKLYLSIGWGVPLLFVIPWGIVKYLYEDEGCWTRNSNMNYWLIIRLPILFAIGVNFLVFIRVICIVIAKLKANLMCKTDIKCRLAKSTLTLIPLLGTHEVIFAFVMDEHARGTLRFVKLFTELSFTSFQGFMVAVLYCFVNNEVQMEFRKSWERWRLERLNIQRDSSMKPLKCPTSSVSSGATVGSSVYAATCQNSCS
Method: Cells were rinsed with PBS and fixed with 4% paraformaldehyde (Thermo Scientific) for 10 min at room temperature and quenched for 5 min with 2% glycine in PBS, pH 7.5. […] After a 2 h incubation at 37 °C in a final volume of 100 μl, the excess peptides were washed, and the cells were blocked with 5% BSA (BD Biosciences). […] Colorimetric changes were analyzed by reading the absorbance at 450 nm in a SpectraMax M5 (Molecular Device) microplate reader. The peptide concentration was plotted against UV absorbance, and the Kd was calculated using Origin 7.0 software.

Compound	degradation in DPP IV proteolysis compared with wild-type GLP-1, within 24 h (DPP IV enzyme)	detectability of full-length peptide at 24 h (DPP IV enzyme)	Kd (GLP-1 receptor (GLP-1R)) [nM]
CCCCCCCCCCCCCCCCNC(=O)CC[C@H](NC(=O)[C@H](CC(C)C)NC(=O)[C@H](Cc1ccc(O)cc1)NC(=O)[C@H](CO)NC(=O)[C@H](CO)NC(=O)[C@@H](NC(=O)[C@H](CC(=O)O)NC(=O)[C@H](CO)NC(=O)[C@@H](NC(=O)[C@H](Cc1ccccc1)NC(=O)[C@@H](NC(=O)CNC(=O)[C@H](CCC(=O)O)NC(=O)[C@H](C)NC(=O)[C@@H](N)Cc1c[nH]cn1)[C@@H](C)O)[C@@H](C)O)C(C)C)C(=O)NCC(=O)N[C@@H](CCC(N)=O)C(=O)N[C@@H](C)C(=O)N[C@@H](C)C(=O)N[C@@H](CCCCN)C(=O)N[C@@H](CCC(=O)O)C(=O)N[C@@H](Cc1ccccc1)C(=O)N[C@H](C(=O)N[C@@H](C)C(=O)N[C@@H](Cc1c[nH]c2ccccc12)C(=O)N[C@@H](CC(C)C)C(=O)N[C@H](C(=O)N[C@@H](CCCCN)C(=O)NCC(=O)N[C@@H](CCCNC(=N)N)C(=O)NCC(=O)O)C(C)C)[C@@H](C)CC [compound 15]	slower degradation rates	still detectable at 24 h	–
CCCCCCCCCCCCCCCCNC(=O)CC[C@H](NC(=O)[C@H](CCCCN)NC(=O)[C@H](C)NC(=O)[C@H](C)NC(=O)[C@H](CCC(N)=O)NC(=O)CNC(=O)[C@H](CCC(=O)O)NC(=O)[C@H](CC(C)C)NC(=O)[C@H](Cc1ccc(O)cc1)NC(=O)[C@H](CO)NC(=O)[C@H](CO)NC(=O)[C@@H](NC(=O)[C@H](CC(=O)O)NC(=O)[C@H](CO)NC(=O)[C@@H](NC(=O)[C@H](Cc1ccccc1)NC(=O)[C@@H](NC(=O)CNC(=O)[C@H](CCC(=O)O)NC(=O)[C@H](C)NC(=O)[C@@H](N)Cc1c[nH]cn1)[C@@H](C)O)[C@@H](C)O)C(C)C)C(=O)N[C@@H](Cc1ccccc1)C(=O)N[C@H](C(=O)N[C@@H](C)C(=O)N[C@@H](Cc1c[nH]c2ccccc12)C(=O)N[C@@H](CC(C)C)C(=O)N[C@H](C(=O)N[C@@H](CCCCN)C(=O)NCC(=O)N[C@@H](CCCNC(=N)N)C(=O)NCC(=O)O)C(C)C)[C@@H](C)CC [compound 18]	slower degradation rates	still detectable at 24 h	16.5 ± 2.17
CCCCCCCCCCCCCCCCNC(=O)CC[C@H](NC(=O)[C@H](C)NC(=O)[C@@H](N)Cc1c[nH]cn1)C(=O)NCC(=O)N[C@H](C(=O)N[C@@H](Cc1ccccc1)C(=O)N[C@H](C(=O)N[C@@H](CO)C(=O)N[C@@H](CC(=O)O)C(=O)N[C@H](C(=O)N[C@@H](CO)C(=O)N[C@@H](CO)C(=O)N[C@@H](Cc1ccc(O)cc1)C(=O)N[C@@H](CC(C)C)C(=O)N[C@@H](CCC(=O)O)C(=O)NCC(=O)N[C@@H](CCC(N)=O)C(=O)N[C@@H](C)C(=O)N[C@@H](C)C(=O)N[C@@H](CCCCN)C(=O)N[C@@H](CCC(=O)O)C(=O)N[C@@H](Cc1ccccc1)C(=O)N[C@H](C(=O)N[C@@H](C)C(=O)N[C@@H](Cc1c[nH]c2ccccc12)C(=O)N[C@@H](CC(C)C)C(=O)N[C@H](C(=O)N[C@@H](CCCCN)C(=O)NCC(=O)N[C@@H](CCCNC(=N)N)C(=O)NCC(=O)O)C(C)C)[C@@H](C)CC)C(C)C)[C@@H](C)O)[C@@H](C)O [compound 9]	–	–	99.74 ± 0.92
CCCCCCCCCCCCNC(=O)C[C@H](NC(=O)[C@H](CO)NC(=O)[C@@H](NC(=O)[C@H](Cc1ccccc1)NC(=O)[C@@H](NC(=O)CNC(=O)[C@H](CCC(=O)O)NC(=O)[C@H](C)NC(=O)[C@@H](N)Cc1c[nH]cn1)[C@@H](C)O)[C@@H](C)O)C(=O)N[C@H](C(=O)N[C@@H](CO)C(=O)N[C@@H](CO)C(=O)N[C@@H](Cc1ccc(O)cc1)C(=O)N[C@@H](CC(C)C)C(=O)N[C@@H](CCC(=O)O)C(=O)NCC(=O)N[C@@H](CCC(N)=O)C(=O)N[C@@H](C)C(=O)N[C@@H](C)C(=O)N[C@@H](CCCCN)C(=O)N[C@@H](CCC(=O)O)C(=O)N[C@@H](Cc1ccccc1)C(=O)N[C@H](C(=O)N[C@@H](C)C(=O)N[C@@H](Cc1c[nH]c2ccccc12)C(=O)N[C@@H](CC(C)C)C(=O)N[C@H](C(=O)N[C@@H](CCCCN)C(=O)NCC(=O)N[C@@H](CCCNC(=N)N)C(=O)NCC(=O)O)C(C)C)[C@@H](C)CC)C(C)C [compound 11]	–	–	97.4 ± 2.11
CCCCCCCCNC(=O)CC[C@H](NC(=O)[C@H](CCCCN)NC(=O)[C@H](C)NC(=O)[C@H](C)NC(=O)[C@H](CCC(N)=O)NC(=O)CNC(=O)[C@H](CCC(=O)O)NC(=O)[C@H](CC(C)C)NC(=O)[C@H](Cc1ccc(O)cc1)NC(=O)[C@H](CO)NC(=O)[C@H](CO)NC(=O)[C@@H](NC(=O)[C@H](CC(=O)O)NC(=O)[C@H](CO)NC(=O)[C@@H](NC(=O)[C@H](Cc1ccccc1)NC(=O)[C@@H](NC(=O)CNC(=O)[C@H](CCC(=O)O)NC(=O)[C@H](C)NC(=O)[C@@H](N)Cc1c[nH]cn1)[C@@H](C)O)[C@@H](C)O)C(C)C)C(=O)N[C@@H](Cc1ccccc1)C(=O)N[C@H](C(=O)N[C@@H](C)C(=O)N[C@@H](Cc1c[nH]c2ccccc12)C(=O)N[C@@H](CC(C)C)C(=O)N[C@H](C(=O)N[C@@H](CCCCN)C(=O)NCC(=O)N[C@@H](CCCNC(=N)N)C(=O)NCC(=O)O)C(C)C)[C@@H](C)CC [compound 16]	–	–	22.3 ± 0.46
CCCCCCCCCCCCNC(=O)CC[C@H](NC(=O)[C@H](C)NC(=O)[C@@H](N)Cc1c[nH]cn1)C(=O)NCC(=O)N[C@H](C(=O)N[C@@H](Cc1ccccc1)C(=O)N[C@H](C(=O)N[C@@H](CO)C(=O)N[C@@H](CC(=O)O)C(=O)N[C@H](C(=O)N[C@@H](CO)C(=O)N[C@@H](CO)C(=O)N[C@@H](Cc1ccc(O)cc1)C(=O)N[C@@H](CC(C)C)C(=O)N[C@@H](CCC(=O)O)C(=O)NCC(=O)N[C@@H](CCC(N)=O)C(=O)N[C@@H](C)C(=O)N[C@@H](C)C(=O)N[C@@H](CCCCN)C(=O)N[C@@H](CCC(=O)O)C(=O)N[C@@H](Cc1ccccc1)C(=O)N[C@H](C(=O)N[C@@H](C)C(=O)N[C@@H](Cc1c[nH]c2ccccc12)C(=O)N[C@@H](CC(C)C)C(=O)N[C@H](C(=O)N[C@@H](CCCCN)C(=O)NCC(=O)N[C@@H](CCCNC(=N)N)C(=O)NCC(=O)O)C(C)C)[C@@H](C)CC)C(C)C)[C@@H](C)O)[C@@H](C)O [compound 8]	–	–	96.7 ± 2.95
CCCCCCCCNC(=O)C[C@H](NC(=O)[C@@H](NC(=O)[C@H](CC(C)C)NC(=O)[C@H](Cc1c[nH]c2ccccc12)NC(=O)[C@H](C)NC(=O)[C@@H](NC(=O)[C@H](Cc1ccccc1)NC(=O)[C@H](CCC(=O)O)NC(=O)[C@H](CCCCN)NC(=O)[C@H](C)NC(=O)[C@H](C)NC(=O)[C@H](CCC(N)=O)NC(=O)CNC(=O)[C@H](CCC(=O)O)NC(=O)[C@H](CC(C)C)NC(=O)[C@H](Cc1ccc(O)cc1)NC(=O)[C@H](CO)NC(=O)[C@H](CO)NC(=O)[C@@H](NC(=O)[C@H](CC(=O)O)NC(=O)[C@H](CO)NC(=O)[C@@H](NC(=O)[C@H](Cc1ccccc1)NC(=O)[C@@H](NC(=O)CNC(=O)[C@H](CCC(=O)O)NC(=O)[C@H](C)NC(=O)[C@@H](N)Cc1c[nH]cn1)[C@@H](C)O)[C@@H](C)O)C(C)C)[C@@H](C)CC)C(C)C)C(=O)NCC(=O)N[C@@H](CCCNC(=N)N)C(=O)NCC(=O)O [compound 19]	–	–	19.6 ± 2.14
CCCCCCCCCCCC(=O)NCCCC[C@H](NC(=O)[C@H](C)NC(=O)[C@H](C)NC(=O)[C@H](CCC(N)=O)NC(=O)CNC(=O)[C@H](CCC(=O)O)NC(=O)[C@H](CC(C)C)NC(=O)[C@H](Cc1ccc(O)cc1)NC(=O)[C@H](CO)NC(=O)[C@H](CO)NC(=O)[C@@H](NC(=O)[C@H](CC(=O)O)NC(=O)[C@H](CO)NC(=O)[C@@H](NC(=O)[C@H](Cc1ccccc1)NC(=O)[C@@H](NC(=O)CNC(=O)[C@H](CCC(=O)O)NC(=O)[C@H](C)NC(=O)[C@@H](N)Cc1c[nH]cn1)[C@@H](C)O)[C@@H](C)O)C(C)C)C(=O)N[C@@H](CCC(=O)O)C(=O)N[C@@H](Cc1ccccc1)C(=O)N[C@H](C(=O)N[C@@H](C)C(=O)N[C@@H](Cc1c[nH]c2ccccc12)C(=O)N[C@@H](CC(C)C)C(=O)N[C@H](C(=O)N[C@@H](CCCCN)C(=O)NCC(=O)N[C@@H](CCCNC(=N)N)C(=O)NCC(=O)O)C(C)C)[C@@H](C)CC [compound 2]	–	–	39.9 ± 1.27
CCCCCCCCNC(=O)CC[C@H](NC(=O)[C@H](CC(C)C)NC(=O)[C@H](Cc1ccc(O)cc1)NC(=O)[C@H](CO)NC(=O)[C@H](CO)NC(=O)[C@@H](NC(=O)[C@H](CC(=O)O)NC(=O)[C@H](CO)NC(=O)[C@@H](NC(=O)[C@H](Cc1ccccc1)NC(=O)[C@@H](NC(=O)CNC(=O)[C@H](CCC(=O)O)NC(=O)[C@H](C)NC(=O)[C@@H](N)Cc1c[nH]cn1)[C@@H](C)O)[C@@H](C)O)C(C)C)C(=O)NCC(=O)N[C@@H](CCC(N)=O)C(=O)N[C@@H](C)C(=O)N[C@@H](C)C(=O)N[C@@H](CCCCN)C(=O)N[C@@H](CCC(=O)O)C(=O)N[C@@H](Cc1ccccc1)C(=O)N[C@H](C(=O)N[C@@H](C)C(=O)N[C@@H](Cc1c[nH]c2ccccc12)C(=O)N[C@@H](CC(C)C)C(=O)N[C@H](C(=O)N[C@@H](CCCCN)C(=O)NCC(=O)N[C@@H](CCCNC(=N)N)C(=O)NCC(=O)O)C(C)C)[C@@H](C)CC [compound 13]	–	–	18.7 ± 1.36
